Values quoted from earlier work, collected in patent publication US20250319042A1, “SKIN CARE PRODUCT WITH LAPACHOL AND METHOD FOR USE THEREOF” (priority 2024, published 2025).

Assays:
prostaglandin E2 (PGE2) = conditions: in cell culture
[1] = tested on: tumor necrosis factor alpha (TNF-a); conditions: in cell culture
[2] = tested on: matrix metalloproteinase 3 (MMP-3); conditions: in cell culture
MMP-8 = conditions: in cell culture
MMP-9 = conditions: in cell culture

Compound	inhibition of PGE2 (prostaglandin E2 (PGE2))	inhibition of TNF-a [1]	inhibition of MMP-3 [2]	inhibition of MMP-8 (MMP-8)	inhibition of MMP-9 (MMP-9)	solubility
CC1(C)CCC2=C(O1)c1ccccc1C(=O)C2=O [beta-lapachone]	inhibits	inhibits	inhibits	inhibits	inhibits	
CC(C)=CCC1=C(O)C(=O)c2ccccc2C1=O [lapachol, 2-hydroxy-3-(3-methyl-2-butenyl)-1,4-naphtoquinone]						primarily oil-soluble
